Patent US7118895B2, “Process for producing aglycon by using diglycosidase and flavor-improved food containing the aglycon and converting agent to be used in the process” (Amano Enzyme Inc., priority 2000, dated 2006)

Assays:
Crude diglycosidase = assay: Examination of substrate concentration in the conversion into isoflavone aglycons by diglycosidase using soybean materials; type: biochemical, Penicillium multicolor IAM7153; conditions: for Decomposition efficiency: ratio of each glycoside/aglycon within its isoflavone family: roasted soy flour;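 as to Decomposition efficiency: ratio of each glycoside/aglycon within its isoflavone family: percent of the isoflavone family total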
In short: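 Reaction at 55° C, shaken, pH 4.0 (20 mM acetate), using crude diglycosidase from a 1.88 AU/mL enzyme solution on soy flour, soymilk, defatted soybean or soy protein concentrate at 2, 5, 10, 20 or 30% (w/v). Isoflavone aglycons quantified by HPLC of ethanol extracts at 0, 1, 3, 6 h.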

[1] = test system: Diglycosidase derived from P. multicolor; assay: Reactivity toward various isoflavone glycosides (HPLC); type: biochemical, Penicillium multicolor; parameters: glucoside / aglycon: unit not given here; conditions: 55 °C, pH 4.0
Method: (§1) Diglycosidase was diluted with an acetate buffer of pH 4.0 to prepare a 0.75 AU/mL enzyme solution. As references, a similar operation was conducted using β-glucosidase (manufactured by Fluka) derived from Aspergillus niger, β-glucosidase (manufactured by Sigma) derived from almond, β-xylosidase derived from pectinase G (manufactured by Amano Enzyme Inc.). Each of purified products of isoflavone glycosides (glycitin, acetylglycitin, malonylglycitin, daidzin, acetyldaidzin, malonyldaidzin, genistin, acetylgenistin, malonylgenistin, all manufactured by Nacalai Tesque, Inc.) was dissolved in methanol to prepare each 2 mM substrate solution. The reaction was carried out by mixing 10 μL of a substrate solution, 200 μL of 20 mM acetate buffer (pH 4.0), and 40 μL of each purified enzyme solution at a total liquid volume of 250 μL. The reaction was carried out at 55° C. and isolation of an aglycon isoflavone from an isoflavone glycoside in the reaction mixture was detected by HLPC at 0, 1, 3, and 6 hours of the reaction.
(§2) To the reaction mixture was added 700 μL of ethanol, followed by stirring and ultrasonication. After centrifugation at 15,000 rpm and 4° C. for 10 minutes, the supernatant was filtered through a filter and then the filtrate was applied to HPLC.
(§3) The isoflavone glycoside and aglycon isoflavone contained in the filtrate was separated and detected by a high performance liquid chromatography (HPLC, Shimadzu CLASS LC-10 system) using TOSOH TSK gel ODS-80TM column (manufactured by Tosoh Corporation). […] The absorbance at 260 nm was detected by a UV detector (Shimadzu, SPD-10AV). Using purified products (manufactured by Nacalai Tesque, Inc.) of the above isoflavone glycosides and aglycon isoflavones, the isoflavone glycoside and aglycon isoflavone were quantitatively determined according to a calibration curve method. By the way, unless otherwise stated, the measuring conditions of HPLC herein mean those described in the example.

[2] = test system: β-Glucosidase derived from A. niger; assay: as above; type: biochemical, Aspergillus niger; parameters: glucoside / aglycon: unit not given here; conditions: 55 °C, pH 4.0
Method: as §1, §2, §3

[3] = substrate concentration 2%, heat treatment of enzyme no, reaction time 0 h
[4] = substrate concentration 2%, heat treatment of enzyme no, reaction time 1 h
[5] = substrate concentration 2%, heat treatment of enzyme no, reaction time 3 h
[6] = substrate concentration 2%, heat treatment of enzyme no, reaction time 6 h
[7] = substrate concentration 2%, heat treatment of enzyme yes, reaction time 6 h
[8] = substrate concentration 5%, heat treatment of enzyme no, reaction time 0 h
[9] = substrate concentration 5%, heat treatment of enzyme no, reaction time 1 h
[10] = substrate concentration 5%, heat treatment of enzyme no, reaction time 3 h
[11] = substrate concentration 5%, heat treatment of enzyme no, reaction time 6 h
[12] = substrate concentration 5%, heat treatment of enzyme yes, reaction time 6 h
[13] = substrate concentration 10%, heat treatment of enzyme no, reaction time 0 h
[14] = substrate concentration 10%, heat treatment of enzyme no, reaction time 1 h
[15] = substrate concentration 10%, heat treatment of enzyme no, reaction time 3 h
[16] = substrate concentration 10%, heat treatment of enzyme no, reaction time 6 h
[17] = substrate concentration 10%, heat treatment of enzyme yes, reaction time 6 h

CC(=O)OC[C@H]1O[C@@H](Oc2ccc3c(=O)c(-c4ccc(O)cc4)coc3c2)[C@H](O)[C@@H](O)[C@@H]1O [acetyldaidzin, 6″-O-acetyldaidzin]
Decomposition efficiency: ratio of each glycoside/aglycon within its isoflavone family (Crude diglycosidase; [3]): 47.6%
Decomposition efficiency: ratio of each glycoside/aglycon within its isoflavone family (Crude diglycosidase; [4]): 9.2%
Decomposition efficiency: ratio of each glycoside/aglycon within its isoflavone family (Crude diglycosidase; [5]): not detected
Decomposition efficiency: ratio of each glycoside/aglycon within its isoflavone family (Crude diglycosidase; [6]): not detected
Decomposition efficiency: ratio of each glycoside/aglycon within its isoflavone family (Crude diglycosidase; [7]): 47.2%
Decomposition efficiency: ratio of each glycoside/aglycon within its isoflavone family (Crude diglycosidase; [8]): 46.1%
Decomposition efficiency: ratio of each glycoside/aglycon within its isoflavone family (Crude diglycosidase; [9]): 20.9%
Decomposition efficiency: ratio of each glycoside/aglycon within its isoflavone family (Crude diglycosidase; [10]): 12.5%
Decomposition efficiency: ratio of each glycoside/aglycon within its isoflavone family (Crude diglycosidase; [11]): 6.8%
Decomposition efficiency: ratio of each glycoside/aglycon within its isoflavone family (Crude diglycosidase; [12]): 46.1%
Decomposition efficiency: ratio of each glycoside/aglycon within its isoflavone family (Crude diglycosidase; [13]): 38.5%
Decomposition efficiency: ratio of each glycoside/aglycon within its isoflavone family (Crude diglycosidase; [14]): 30.5%
Decomposition efficiency: ratio of each glycoside/aglycon within its isoflavone family (Crude diglycosidase; [15]): 21.5%
Decomposition efficiency: ratio of each glycoside/aglycon within its isoflavone family (Crude diglycosidase; [16]): 14.9%
Decomposition efficiency: ratio of each glycoside/aglycon within its isoflavone family (Crude diglycosidase; [17]): 47.7%
Decomposition efficiency: ratio of each glycoside/aglycon within its isoflavone family (Crude diglycosidase; substrate concentration 20%, heat treatment of enzyme no, reaction time 0 h): 46.1%
Decomposition efficiency: ratio of each glycoside/aglycon within its isoflavone family (Crude diglycosidase; substrate concentration 20%, heat treatment of enzyme no, reaction time 1 h): 40.7%
Decomposition efficiency: ratio of each glycoside/aglycon within its isoflavone family (Crude diglycosidase; substrate concentration 20%, heat treatment of enzyme no, reaction time 3 h): 32.6%
Decomposition efficiency: ratio of each glycoside/aglycon within its isoflavone family (Crude diglycosidase; substrate concentration 20%, heat treatment of enzyme no, reaction time 6 h): 25.1%
Decomposition efficiency: ratio of each glycoside/aglycon within its isoflavone family (Crude diglycosidase; substrate concentration 20%, heat treatment of enzyme yes, reaction time 6 h): 47.2%
Decomposition efficiency: ratio of each glycoside/aglycon within its isoflavone family (Crude diglycosidase; substrate concentration 30%, heat treatment of enzyme no, reaction time 0 h): 47.6%
Decomposition efficiency: ratio of each glycoside/aglycon within its isoflavone family (Crude diglycosidase; substrate concentration 30%, heat treatment of enzyme no, reaction time 1 h): 46.4%
Decomposition efficiency: ratio of each glycoside/aglycon within its isoflavone family (Crude diglycosidase; substrate concentration 30%, heat treatment of enzyme no, reaction time 3 h): 42.6%
Decomposition efficiency: ratio of each glycoside/aglycon within its isoflavone family (Crude diglycosidase; substrate concentration 30%, heat treatment of enzyme no, reaction time 6 h): 34.3%
Decomposition efficiency: ratio of each glycoside/aglycon within its isoflavone family (Crude diglycosidase; substrate concentration 30%, heat treatment of enzyme yes, reaction time 6 h): 47.4%
Decomposition efficiency of daidzin family in defatted soybean (Crude diglycosidase; [3]): not detected
Decomposition efficiency of daidzin family in defatted soybean (Crude diglycosidase; [4]): not detected
Decomposition efficiency of daidzin family in defatted soybean (Crude diglycosidase; [5]): not detected
Decomposition efficiency of daidzin family in defatted soybean (Crude diglycosidase; [6]): not detected
Decomposition efficiency of daidzin family in defatted soybean (Crude diglycosidase; [7]): not detected
Decomposition efficiency of daidzin family in defatted soybean (Crude diglycosidase; [8]): not detected
Decomposition efficiency of daidzin family in defatted soybean (Crude diglycosidase; [9]): not detected
Decomposition efficiency of daidzin family in defatted soybean (Crude diglycosidase; [10]): not detected
Decomposition efficiency of daidzin family in defatted soybean (Crude diglycosidase; [11]): not detected
Decomposition efficiency of daidzin family in defatted soybean (Crude diglycosidase; [12]): not detected
Decomposition efficiency of daidzin family in defatted soybean (Crude diglycosidase; [13]): not detected
Decomposition efficiency of daidzin family in defatted soybean (Crude diglycosidase; [14]): not detected
Decomposition efficiency of daidzin family in defatted soybean (Crude diglycosidase; [15]): not detected
Decomposition efficiency of daidzin family in defatted soybean (Crude diglycosidase; [16]): not detected
Decomposition efficiency of daidzin family in defatted soybean (Crude diglycosidase; [17]): not detected
aglycon ([1]; Reaction time 0 h): 0
glucoside ([1]; Reaction time 0 h): 100
aglycon ([1]; Reaction time 1 h): 89.6
glucoside ([1]; Reaction time 1 h): 10.4
aglycon ([1]; Reaction time 3 h): 96.2
glucoside ([1]; Reaction time 3 h): 3.8
aglycon ([1]; Reaction time 6 h): 96.2
glucoside ([1]; Reaction time 6 h): 3.8
aglycon ([2]; Reaction time 0 h): 0
glucoside ([2]; Reaction time 0 h): 100
aglycon ([2]; Reaction time 1 h): 4.4
glucoside ([2]; Reaction time 1 h): 95.6
aglycon ([2]; Reaction time 3 h): 6.4
glucoside ([2]; Reaction time 3 h): 93.6
aglycon ([2]; Reaction time 6 h): 9
glucoside ([2]; Reaction time 6 h): 91
